The text below walks through data of the METLIN SMRT retention time set (Domingo-Almenara et al. 2019).

This data set is described as follows: gradient 5% acetonitrile 3 min, to 50% in 2 min, to 85% in 15 min, held 3 min, 100 µL/min. Particulars: column: Zorbax Extend-C18 2.1 x 50 mm; eluents: water / acetonitrile, 0.1% formic acid. The method in brief: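 Retention times come from adduct peaks that were picked computationally and then checked by hand. The standards, pure and pooled in mixtures of ~100 molecules, were run on a Zorbax Extend-C18 column (2.1 × 50 mm, 1.8 μm) at 100 μL/min with water and acetonitrile, each with 0.1% formic acid. Detection was by quadrupole time-of-flight mass spectrometry in positive and negative ionization mode, with a dead volume of 40 μL and a dwell volume of 900 μL.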
For `Cc1ccc(-c2cn3c(CC(=O)Nc4ccc(F)cc4C)csc3n2)cc1C`, the RP-LC retention time was 862 s. `O=C1CC(c2ccccc2)Cc2nc(N3CCN(c4ccccn4)CC3)ncc21` (stereo not given) gave an RP-LC retention time of 624 s. `CCCS(=O)(=O)N1CC(=O)N(c2cccc(Cl)c2)C(C)(C(=O)NC2CCCCC2)C1` (stereo not given) gave an RP-LC retention time of 955 s. Next, `COc1ccc(NS(=O)(=O)c2cn(C)c3ncccc23)cc1`: 740 s. As for `O=C(CC1CCCC1)N1CCCC(c2nc(-c3ccncc3)n[nH]2)C1` (stereo not given), the figure is 577 s; as for `Cc1cc2c(cc1CNC(=O)c1cc3c(cc1C)OCCCO3)OCCO2`, 846 s. `CC(C)Cn1cc(CCNC(=O)c2ccccc2)c2cccnc21`: the RP-LC retention time turned out to be 770 s. Turning to `CCC(=O)N(C1CCOCC1)C1CCN(S(=O)(=O)c2ccc(C)c(C)c2)CC1`, the RP-LC retention time is 869 s. For the compound `CC(C)N1CCn2cc(S(=O)(=O)Nc3ccc(F)cc3F)cc2C1=O`, the RP-LC retention time was 759 s.

`CCCn1cc(-c2nc(-c3cccnc3)no2)c(=O)c2cc(F)ccc21` returned an RP-LC retention time of 770 s.

As to `COc1ccc(CCNc2nc(-c3ccc(Cl)cc3)cs2)cc1OC`, the RP-LC retention time stood at 1050 s. Turning to `O=S(=O)(c1ccc(-c2noc(-c3ccc(F)c(F)c3)n2)cc1)N1CCCC1`, the RP-LC retention time is 1210 s.

Take `Cn1cc(-c2ccc3nnc(C(F)(F)c4ccc5ncccc5c4)n3n2)cn1`: the RP-LC retention time was 694 s. Compound `Clc1cccc(-c2noc(Cc3nc(-c4ccccc4)cs3)n2)c1` had an RP-LC retention time of 1280 s. Next, `CNC(=O)[C@@H](NC(=O)[C@H](CC(C)C)[C@H](O)C(=O)NO)C(C)(C)C`: 620 s; `CCCCC(=O)N(C)CCc1noc(-c2ccc(C(=O)N3CCOCC3)cc2)n1`: 686 s; `COc1ccc(NC(=O)c2noc3c2CCCC3)c(OC)c1`: 1170 s. In turn, `CCCSCCCNC(=O)Cn1cnc2nc3c(cc2c1=O)CC(C)CC3` (stereo not given) had an RP-LC retention time of 778 s. In turn, `Cc1cccc(S(=O)(=O)N2C[C@H](c3nc(-c4cccnc4)no3)[C@@H](C)C2)c1` registered an RP-LC retention time of 914 s. `Cc1cc2nc(NC3=NCN(CCO)CN3)nc(C)c2cc1C` returned an RP-LC retention time of 597 s. As for `COc1cc(OC)c(NC(=O)c2c(OC)cc(=O)n3c2CCCC3)cc1Cl`, the RP-LC retention time stood at 884 s. As for `Cc1ccc(C(C)NC(=O)C2CC(=O)N(c3cccc(NC(=O)C(C)C)c3)C2)c(C)c1` (stereo not given), the figure is 868 s. `CCN1CCN(S(=O)(=O)c2cc(-c3nc(C(C)C)cs3)sc2C)CC1` had an RP-LC retention time of 744 s. On to `O=C(Cn1cccc1-c1nc(-c2ccc3c(c2)OCO3)no1)Nc1ccc(Cl)cc1`, for which the RP-LC retention time is 1070 s. Compound `FC(F)(F)c1cccc(-c2ccc(CNCC3CCNCC3)o2)c1` showed an RP-LC retention time of 580 s. Next, `CCC(C(=O)N1CCOCC1)n1c2ccccc2c2cnn(C)c(=O)c21` (stereo not given): 764 s; `CCn1c(=O)sc2cc(S(=O)(=O)N3CCC(C(=O)NCc4cccnc4)CC3)ccc21`: 610 s. As for `Cc1cccc(-c2nc(C)c3c(n2)N(Cc2cccnc2)C(=O)CC3)c1`, the RP-LC retention time is 722 s. Compound `CCC(=O)N(CCC1CCOC(C)(C)C1)Cc1ccc(OC)cc1` (stereo not given) came in with an RP-LC retention time of 896 s. Next, `Cc1ccc2[nH]cc(CCN3CC(C(=O)Nc4ccc5c(c4)OCCO5)CC3=O)c2c1` (stereo not given): 777 s; `CN1CCCn2nc(C3CCN(C(=O)c4cccc(C(F)(F)F)c4)CC3)cc2C1=O`: 718 s. `O=C(c1cccs1)N1CCC(F)(C(=O)NC2CC2)CC1` registered an RP-LC retention time of 634 s. As to `Cc1sc2nc(SCC(=O)Nc3sc4c(c3C#N)CCCC4)n(C)c(=O)c2c1C`, the RP-LC retention time is 1080 s. The compound `Cc1cccc(S(=O)(=O)N2CCC(N3CCN(Cc4ccccc4)C(=O)C3=O)CC2)c1` came in with an RP-LC retention time of 838 s. In the case of `Cn1cc(CCNC(=O)Cc2ccccc2Cl)c2cccnc21`, the RP-LC retention time came out at 700 s.

On to `Cc1ccn2c(NC(=O)c3ccc([N+](=O)[O-])cc3)c(-c3ccc(F)cc3)nc2c1`, for which the RP-LC retention time stood at 684 s. Regarding `Cn1cc(-c2ccncc2)cc1C(=O)NCc1ccccc1C(F)(F)F`, the RP-LC retention time stood at 672 s.

Regarding `c1cc(CN2CCCCC2)cc(OCCCNc2nc3ccccc3s2)c1`, the RP-LC retention time was 665 s.

Compound `Cc1cc(N(C)C)n2nc(CN3CCN(c4cccc(C)c4C)CC3)nc2n1` had an RP-LC retention time of 655 s. `O=C(NCCc1csc(-c2ccc(Cl)cc2)n1)C(=O)Nc1ccc2c(c1)OCCO2` came in with an RP-LC retention time of 1030 s. Turning to `Cc1c(S(=O)(=O)N2c3ccccc3CC2C)cc(C(=O)N2CCC(C)CC2)n1C` (stereo not given), the RP-LC retention time was determined as 723 s.

The compound `Cc1cc(C)c(S(=O)(=O)N2CCC(C(=O)NCc3csc(-c4cccs4)n3)CC2)cc1C` gave an RP-LC retention time of 1050 s. For `Cc1ncoc1C(=O)NCC1Cn2cccc2C(=O)N1C` (stereo not given), the RP-LC retention time amounted to 583 s.

In turn, `O=C(Cc1ccc(NC(=O)CSCc2ccccc2)cc1)NCC(F)(F)F` displayed an RP-LC retention time of 801 s. For the compound `Cc1ccc(-c2nc3cccnc3n2CCCNC(=O)Nc2ccc3c(c2)OCCO3)cc1`, the RP-LC retention time stood at 698 s. The compound `Cc1ccc(-n2cc3c(N4CCCC(C(=O)NCc5ccc(OC(C)C)cc5)C4)ncnc3n2)cc1` (stereo not given) displayed an RP-LC retention time of 765 s. Compound `Cc1cc(C(=O)OCC(=O)c2cccc([N+](=O)[O-])c2)c2ccccc2n1` gave an RP-LC retention time of 804 s. Consider `CCc1nc(-c2csc(S(=O)(=O)N3CCC(C(=O)Nc4ccc(OC)cc4)CC3)c2)no1`, for which the RP-LC retention time was determined as 930 s. Turning to `CC(C)CC(=O)Nc1nnc(SCc2nnc(-c3ccc4c(c3)OCO4)o2)s1`, the RP-LC retention time was determined as 854 s. `Cc1ccn2c(NC(=O)c3ccco3)c(-c3ccccc3)nc2c1` yielded an RP-LC retention time of 622 s. On to `Cc1c(N2C(=O)C3C4C=CC(C4)C3C2=O)c(=O)n(-c2ccccc2)n1C` (stereo not given), for which the RP-LC retention time was determined as 615 s. `COc1ccccc1C1(CNS(=O)(=O)c2ccc(NC(=O)C(C)C)cc2)CCOCC1` gave an RP-LC retention time of 806 s. Consider `O=C(NCc1cccc(Br)c1)C(=O)c1ccc[nH]1`, for which the RP-LC retention time is 874 s. `COc1ccc(CCN)cc1` had an RP-LC retention time of 574 s. Compound `CCN1C(=O)COc2ccc(-c3noc(CNS(=O)(=O)c4ccc(Cl)cc4)n3)cc21` showed an RP-LC retention time of 904 s. For the compound `COC(=O)c1nc(NC(=O)Cn2nc3c(cc2=O)CCCC3)sc1C(C)C`, the RP-LC retention time came to 805 s. The compound `CCOc1ccc2nc(NC(=O)Cc3csc4nc(-c5ccccc5)cn34)sc2c1` showed an RP-LC retention time of 874 s. As for `COCCN(C)C(=O)c1cc2c(s1)N(C)CCCC2`, the RP-LC retention time came to 770 s. `CCCc1cc(C2CCCN2C(=O)Nc2ccccc2OC)no1` (stereo not given): the RP-LC retention time came out at 901 s. As for `O=C1CCC2(C(=O)NCC3CC3)CCCC=C2N1c1ccccc1` (stereo not given), the figure is 726 s; as for `CN1C(=O)COc2ccc(-c3csc(NC(=O)C4CC4)n3)cc21`, 778 s. As for `Cc1cc(C)n(Cc2nc(-c3ccc(NC(=O)c4cccs4)cc3)oc2C)n1`, the figure is 896 s. Take `Cc1ccc2c(c1)N(Cc1ccccc1F)N=C(C(=O)N1CCC(C)CC1)S2(=O)=O`: the RP-LC retention time amounted to 1090 s. On to `O=C(Nc1cccc(N2CCCS2(=O)=O)c1)Nc1cccs1`, for which the RP-LC retention time amounted to 696 s. `CCCCNC(=O)C1CCN(C(=O)Nc2ccc(NC(=O)NC3CCCCC3)cc2)CC1` returned an RP-LC retention time of 732 s. `COCCNC(=O)c1nn(-c2ccc(F)cc2)nc1CO` returned an RP-LC retention time of 730 s. Take `O=C(Nc1cccc(F)c1)C1CC(=O)N(c2ccc3c(c2)CCN3C(=O)C2CCC2)C1` (stereo not given): the RP-LC retention time amounted to 839 s. The compound `O=C(CCSc1ccc(F)cc1)Nc1ccccc1-c1nc2ccccc2[nH]1` displayed an RP-LC retention time of 939 s. Regarding `CC(C)NC(=O)C1CCCN(c2nc3ncn(CC(=O)NCc4ccc(F)cc4)c(=O)c3s2)C1` (stereo not given), the RP-LC retention time is 689 s. `O=S(=O)(Nc1cccc(F)c1)c1ccccc1-c1nc(-c2ccccc2)no1`: the RP-LC retention time turned out to be 1170 s.

For `Cn1ncc2c3ccccc3n(CCCC(=O)NCCCN3CCN(c4ccccc4)CC3)c2c1=O`, the RP-LC retention time came out at 672 s. Turning to `COc1ccc(NC(=O)Cn2cccc2-c2nnc(-c3ccccc3)o2)cc1OC`, the RP-LC retention time was 850 s. `CCOc1ccc(-c2ccc(=O)n(Cc3nc(-c4ccc5c(c4)OCO5)no3)n2)cc1` gave an RP-LC retention time of 1050 s. `Cc1nc(-n2cccc2)sc1C(=O)NCc1ccc(C(C)C)cc1` had an RP-LC retention time of 1130 s. Regarding `COc1cccc(-c2noc(Cn3nc(-c4ccccc4)ccc3=O)n2)c1`, the RP-LC retention time is 998 s. As for `Cc1nc(C)c(C(=O)N2CC(Oc3ccc(-c4nc(-c5ccccc5)no4)cc3)C2)s1`, the figure is 1130 s. As to `CC(C)CCNC(=O)NCCc1cn(C)c2ncccc12`, the RP-LC retention time came to 649 s. `O=C(Cn1ccnc1-c1ccnc(N2CCOCC2)c1)N1CCN(c2ccccc2)CC1` returned an RP-LC retention time of 639 s.

For `COc1ccc(-c2cc3c4nnc(CCC(=O)N5CCN(c6ccccn6)CC5)n4ccn3n2)cc1`, the RP-LC retention time was 605 s.

With `COc1ccc2c(c1)C1(CCN(C(=O)Cc3cccc(F)c3)C1)C(=O)N2` (stereo not given), the RP-LC retention time came out at 740 s.
